Laboratory results from ChEMBL document CHEMBL5543146 (J Med Chem, 2024).

Assays:
[1] = target: T1, Dual specificity protein kinase TTK (Homo sapiens, UniProt P33981); assay: Inhibition of human wild type TTK using RBER-CHKtide as substrate in presence of ATP by hotspot assay
T1 sequence (P33981 whole entry): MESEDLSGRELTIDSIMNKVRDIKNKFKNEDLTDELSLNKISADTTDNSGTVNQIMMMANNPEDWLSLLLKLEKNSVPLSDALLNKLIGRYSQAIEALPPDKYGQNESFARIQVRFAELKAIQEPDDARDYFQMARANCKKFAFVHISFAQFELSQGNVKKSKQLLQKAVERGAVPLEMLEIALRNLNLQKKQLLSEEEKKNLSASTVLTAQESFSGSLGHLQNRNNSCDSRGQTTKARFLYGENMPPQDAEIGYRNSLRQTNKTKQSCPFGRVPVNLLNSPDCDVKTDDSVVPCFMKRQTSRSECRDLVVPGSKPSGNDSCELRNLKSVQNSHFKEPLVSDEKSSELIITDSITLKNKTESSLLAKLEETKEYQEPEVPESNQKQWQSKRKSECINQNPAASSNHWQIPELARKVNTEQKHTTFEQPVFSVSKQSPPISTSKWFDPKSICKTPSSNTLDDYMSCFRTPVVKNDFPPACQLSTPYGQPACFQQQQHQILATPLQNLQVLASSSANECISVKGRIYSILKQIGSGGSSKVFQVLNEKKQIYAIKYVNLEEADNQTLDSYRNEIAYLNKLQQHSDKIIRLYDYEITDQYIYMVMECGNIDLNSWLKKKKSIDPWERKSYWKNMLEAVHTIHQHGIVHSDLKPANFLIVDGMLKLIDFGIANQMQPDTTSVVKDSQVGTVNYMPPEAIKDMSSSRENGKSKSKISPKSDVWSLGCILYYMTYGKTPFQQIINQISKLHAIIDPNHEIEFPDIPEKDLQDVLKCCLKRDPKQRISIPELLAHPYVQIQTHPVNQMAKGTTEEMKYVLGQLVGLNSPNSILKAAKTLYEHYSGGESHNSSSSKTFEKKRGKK

[2] = target: T2, Fibroblast growth factor receptor 4 (Homo sapiens, UniProt P22455); assay: Inhibition of N-terminal GST tagged cytoplasmic domain human FGFR4 (460 to 802 residues) expressed in Escherichia coli BL21 (DE3) using CSox as substrate incubated for 240 mins in presence of ATP by hotspot assay
Target sequence in this assay (P22455 whole entry, the tested form may be a part): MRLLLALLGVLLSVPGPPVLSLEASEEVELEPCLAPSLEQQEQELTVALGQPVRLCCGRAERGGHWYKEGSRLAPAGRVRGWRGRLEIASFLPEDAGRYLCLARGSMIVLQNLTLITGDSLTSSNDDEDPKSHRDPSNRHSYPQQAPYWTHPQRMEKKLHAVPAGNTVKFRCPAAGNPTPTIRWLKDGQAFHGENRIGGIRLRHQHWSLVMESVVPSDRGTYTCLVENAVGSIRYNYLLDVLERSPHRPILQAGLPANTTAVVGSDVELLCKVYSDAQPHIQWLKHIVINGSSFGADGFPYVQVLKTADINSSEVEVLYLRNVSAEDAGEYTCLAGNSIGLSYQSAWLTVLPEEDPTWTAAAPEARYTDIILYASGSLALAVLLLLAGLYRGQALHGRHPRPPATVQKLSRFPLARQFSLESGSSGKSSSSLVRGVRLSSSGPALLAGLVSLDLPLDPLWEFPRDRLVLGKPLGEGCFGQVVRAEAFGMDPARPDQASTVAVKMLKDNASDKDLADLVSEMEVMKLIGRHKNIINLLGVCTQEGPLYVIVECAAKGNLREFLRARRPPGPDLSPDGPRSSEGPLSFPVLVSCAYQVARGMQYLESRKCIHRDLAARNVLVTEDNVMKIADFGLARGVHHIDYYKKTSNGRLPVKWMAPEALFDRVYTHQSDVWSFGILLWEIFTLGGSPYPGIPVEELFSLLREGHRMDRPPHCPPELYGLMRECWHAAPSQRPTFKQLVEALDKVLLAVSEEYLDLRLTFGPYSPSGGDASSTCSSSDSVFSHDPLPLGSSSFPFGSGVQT

[3] = target: T2, Fibroblast growth factor receptor 4; assay: Inhibition of N-terminal GST tagged cytoplasmic domain human FGFR4 (460 to 802 residues) expressed in Escherichia coli BL21 (DE3) by phosphosen-csox based assay
Target sequence in this assay (P22455 whole entry, the tested form may be a part): as above

[4] = target: T3, Fibroblast growth factor receptor 1 (Homo sapiens, UniProt P11362); assay: Inhibition of human FGFR1 using poly[Glu:Tyr] (4:1) as substrate in presence of ATP by hotspot assay
T3 sequence (P11362 whole entry): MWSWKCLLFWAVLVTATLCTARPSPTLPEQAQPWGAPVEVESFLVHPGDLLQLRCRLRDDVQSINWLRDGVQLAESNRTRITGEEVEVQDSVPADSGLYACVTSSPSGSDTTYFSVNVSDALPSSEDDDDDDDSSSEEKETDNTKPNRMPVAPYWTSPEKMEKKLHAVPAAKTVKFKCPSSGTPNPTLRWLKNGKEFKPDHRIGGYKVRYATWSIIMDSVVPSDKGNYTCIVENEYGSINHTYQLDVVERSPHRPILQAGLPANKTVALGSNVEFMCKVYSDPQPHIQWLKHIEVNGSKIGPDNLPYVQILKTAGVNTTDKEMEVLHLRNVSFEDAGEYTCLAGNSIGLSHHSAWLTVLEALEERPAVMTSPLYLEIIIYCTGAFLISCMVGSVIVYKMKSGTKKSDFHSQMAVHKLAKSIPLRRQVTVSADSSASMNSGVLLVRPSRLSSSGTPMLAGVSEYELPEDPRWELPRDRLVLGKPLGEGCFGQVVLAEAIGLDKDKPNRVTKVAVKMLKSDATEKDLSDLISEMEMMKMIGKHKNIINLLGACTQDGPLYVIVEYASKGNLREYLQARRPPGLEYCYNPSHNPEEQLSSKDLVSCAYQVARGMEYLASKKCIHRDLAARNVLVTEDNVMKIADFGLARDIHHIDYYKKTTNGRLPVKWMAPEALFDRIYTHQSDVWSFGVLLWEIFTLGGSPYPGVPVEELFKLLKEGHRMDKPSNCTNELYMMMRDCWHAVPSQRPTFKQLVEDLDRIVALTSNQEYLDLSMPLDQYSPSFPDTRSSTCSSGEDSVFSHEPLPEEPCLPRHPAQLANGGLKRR

[5] = target: T4, Fibroblast growth factor receptor 2 (Homo sapiens, UniProt P21802); assay: Inhibition of human FGFR2 in presence of ATP by hotspot assay
T4 sequence (P21802 whole entry): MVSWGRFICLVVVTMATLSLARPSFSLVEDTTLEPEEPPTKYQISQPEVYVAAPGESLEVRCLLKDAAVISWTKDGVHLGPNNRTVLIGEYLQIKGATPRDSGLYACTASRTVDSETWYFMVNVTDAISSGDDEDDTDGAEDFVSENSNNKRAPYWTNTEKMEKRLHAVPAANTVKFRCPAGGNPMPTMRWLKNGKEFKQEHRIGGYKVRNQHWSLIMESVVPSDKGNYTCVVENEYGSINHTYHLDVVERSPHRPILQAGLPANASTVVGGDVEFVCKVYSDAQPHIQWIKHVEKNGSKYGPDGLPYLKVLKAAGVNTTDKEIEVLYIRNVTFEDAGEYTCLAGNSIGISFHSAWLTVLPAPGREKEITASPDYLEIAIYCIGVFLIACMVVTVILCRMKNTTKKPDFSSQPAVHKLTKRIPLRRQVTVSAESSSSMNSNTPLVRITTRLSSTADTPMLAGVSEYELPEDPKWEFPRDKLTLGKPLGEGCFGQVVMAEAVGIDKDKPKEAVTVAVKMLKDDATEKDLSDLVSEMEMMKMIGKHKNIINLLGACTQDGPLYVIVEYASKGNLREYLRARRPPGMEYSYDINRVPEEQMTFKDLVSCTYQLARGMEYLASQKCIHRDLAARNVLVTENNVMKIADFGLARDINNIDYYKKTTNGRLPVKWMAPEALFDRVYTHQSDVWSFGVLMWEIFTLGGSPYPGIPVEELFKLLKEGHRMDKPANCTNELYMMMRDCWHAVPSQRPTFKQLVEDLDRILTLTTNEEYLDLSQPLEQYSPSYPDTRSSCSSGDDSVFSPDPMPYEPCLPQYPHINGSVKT

[6] = target: T5, Fibroblast growth factor receptor 3 (Homo sapiens, UniProt P22607); assay: Inhibition of human wild type FGFR3 using polyEY as substrate in presence of ATP by hotspot assay
Target sequence in this assay (P22607 whole entry): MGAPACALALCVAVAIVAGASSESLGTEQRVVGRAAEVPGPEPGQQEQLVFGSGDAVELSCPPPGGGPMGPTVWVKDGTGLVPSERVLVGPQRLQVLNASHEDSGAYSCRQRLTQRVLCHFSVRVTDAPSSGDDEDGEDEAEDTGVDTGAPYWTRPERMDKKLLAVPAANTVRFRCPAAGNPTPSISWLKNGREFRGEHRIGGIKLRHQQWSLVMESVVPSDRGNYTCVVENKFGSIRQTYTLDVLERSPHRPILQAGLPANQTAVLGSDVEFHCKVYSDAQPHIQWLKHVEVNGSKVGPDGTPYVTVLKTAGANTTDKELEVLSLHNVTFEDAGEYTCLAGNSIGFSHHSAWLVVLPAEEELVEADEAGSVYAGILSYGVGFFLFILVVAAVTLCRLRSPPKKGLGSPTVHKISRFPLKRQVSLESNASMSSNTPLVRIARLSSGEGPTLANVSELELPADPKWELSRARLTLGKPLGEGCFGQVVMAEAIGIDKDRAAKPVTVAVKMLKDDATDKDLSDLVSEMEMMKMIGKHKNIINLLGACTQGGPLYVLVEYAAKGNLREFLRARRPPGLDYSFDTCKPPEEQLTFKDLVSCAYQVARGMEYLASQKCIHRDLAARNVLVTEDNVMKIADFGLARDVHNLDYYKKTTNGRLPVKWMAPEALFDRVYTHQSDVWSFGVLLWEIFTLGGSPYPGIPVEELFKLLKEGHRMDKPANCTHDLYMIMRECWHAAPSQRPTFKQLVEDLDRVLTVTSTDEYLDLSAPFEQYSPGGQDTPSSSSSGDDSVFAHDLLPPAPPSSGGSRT

[7] = target: Ribosomal protein S6 kinase beta-2 (Homo sapiens, UniProt Q9UBS0); assay: Inhibition of human wild type S6K2 using RBER-CHKtide as substrate in presence of ATP by hotspot assay
Ribosomal protein S6 kinase beta-2, sequence (Q9UBS0 whole entry): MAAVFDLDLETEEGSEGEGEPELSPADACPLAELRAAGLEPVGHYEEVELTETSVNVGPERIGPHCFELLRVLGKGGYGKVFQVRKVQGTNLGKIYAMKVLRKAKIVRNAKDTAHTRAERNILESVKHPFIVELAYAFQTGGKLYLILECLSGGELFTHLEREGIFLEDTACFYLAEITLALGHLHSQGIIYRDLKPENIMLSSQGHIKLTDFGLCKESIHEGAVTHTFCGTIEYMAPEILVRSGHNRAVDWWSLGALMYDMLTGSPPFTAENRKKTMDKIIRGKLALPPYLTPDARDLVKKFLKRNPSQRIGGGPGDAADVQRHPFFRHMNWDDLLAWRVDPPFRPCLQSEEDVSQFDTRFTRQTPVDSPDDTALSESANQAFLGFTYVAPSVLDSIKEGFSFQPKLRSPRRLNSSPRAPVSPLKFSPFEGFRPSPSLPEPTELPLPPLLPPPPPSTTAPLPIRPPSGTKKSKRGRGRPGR

[8] = target: MAP kinase-activated protein kinase 2 (Homo sapiens, UniProt P49137); assay: Inhibition of human MAPKAPK2 using KKLNRTLSVA as substrate in presence of ATP by hotspot assay
[9] = target: MAP kinase-activated protein kinase 3 (Homo sapiens, UniProt Q16644); assay: Inhibition of human MAPKAPK3 using KKLNRTLSVA as substrate in presence of ATP by hotspot assay
MAP kinase-activated protein kinase 3, sequence (Q16644 whole entry, the tested form may be a part): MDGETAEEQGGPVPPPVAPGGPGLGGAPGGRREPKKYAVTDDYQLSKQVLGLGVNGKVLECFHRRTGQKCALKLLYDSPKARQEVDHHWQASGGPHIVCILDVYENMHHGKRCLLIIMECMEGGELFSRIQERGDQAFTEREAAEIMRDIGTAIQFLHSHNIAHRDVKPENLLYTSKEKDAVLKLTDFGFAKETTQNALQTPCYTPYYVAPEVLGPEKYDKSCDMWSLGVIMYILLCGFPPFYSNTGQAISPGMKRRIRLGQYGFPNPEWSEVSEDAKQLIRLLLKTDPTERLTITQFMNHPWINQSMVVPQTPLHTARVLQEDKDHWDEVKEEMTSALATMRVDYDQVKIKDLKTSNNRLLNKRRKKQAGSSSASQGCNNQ

[10] = target: T2, Fibroblast growth factor receptor 4; assay: Binding affinity to N-terminal GST tagged cytoplasmic domain human FGFR4 (460 to 802 residues) expressed in Escherichia coli BL21 (DE3) assessed as inhibition constant using sox as substrate incubated for 30 mins followed by enzyme addition and measured after 120 mins in presence of ATP by PhosphoSens CSox-based continuous assay
Target sequence in this assay (P22455 whole entry, the tested form may be a part): as the sequence (P22455 whole entry, the tested form may be a part) above

[11] = target: T3, Fibroblast growth factor receptor 1; assay: Inhibition of full length nanoluc-fused FGFR1 transfected in HEK293T cells assessed as target engagement incubated for 3 hrs in presence of K10 tracer by Nano BRET assay; type: cell-based
[12] = target: T4, Fibroblast growth factor receptor 2; assay: Inhibition of full length nanoluc-fused FGFR2 transfected in HEK293T cells assessed as target engagement incubated for 3 hrs in presence of K10 tracer by Nano BRET assay; type: cell-based
[13] = target: T5, Fibroblast growth factor receptor 3; assay: Inhibition of full length nanoluc-fused FGFR3 transfected in HEK293T cells assessed as target engagement incubated for 3 hrs in presence of K10 tracer by Nano BRET assay; type: cell-based
Target sequence in this assay (P22607 whole entry): as the sequence (P22607 whole entry) above

[14] = target: T2, Fibroblast growth factor receptor 4; assay: Inhibition of full length nanoluc-fused FGFR4 transfected in HEK293T cells assessed as target engagement incubated for 3 hrs in presence of K10 tracer by Nano BRET assay; type: cell-based
Target sequence in this assay (P22455 whole entry, the tested form may be a part): as the sequence (P22455 whole entry, the tested form may be a part) above

Hep 3B2 = assay: cells; settings: Homo sapiens, Hep3B, 96 h
Description: Antiproliferative activity against human Hep3B cells measured after 4 days by Celltiter-glo based luminescent assay

[15] = target: T2, Fibroblast growth factor receptor 4; assay: Inhibition of N-terminal GST tagged cytoplasmic domain human FGFR4 (460 to 802 residues) expressed in Escherichia coli BL21 (DE3) using CSox as substrate assessed as residual activity at 5 uM incubated for 240 mins in presence of ATP by hotspot assay relative to control
Target sequence in this assay (P22455 22-802 limits assumed): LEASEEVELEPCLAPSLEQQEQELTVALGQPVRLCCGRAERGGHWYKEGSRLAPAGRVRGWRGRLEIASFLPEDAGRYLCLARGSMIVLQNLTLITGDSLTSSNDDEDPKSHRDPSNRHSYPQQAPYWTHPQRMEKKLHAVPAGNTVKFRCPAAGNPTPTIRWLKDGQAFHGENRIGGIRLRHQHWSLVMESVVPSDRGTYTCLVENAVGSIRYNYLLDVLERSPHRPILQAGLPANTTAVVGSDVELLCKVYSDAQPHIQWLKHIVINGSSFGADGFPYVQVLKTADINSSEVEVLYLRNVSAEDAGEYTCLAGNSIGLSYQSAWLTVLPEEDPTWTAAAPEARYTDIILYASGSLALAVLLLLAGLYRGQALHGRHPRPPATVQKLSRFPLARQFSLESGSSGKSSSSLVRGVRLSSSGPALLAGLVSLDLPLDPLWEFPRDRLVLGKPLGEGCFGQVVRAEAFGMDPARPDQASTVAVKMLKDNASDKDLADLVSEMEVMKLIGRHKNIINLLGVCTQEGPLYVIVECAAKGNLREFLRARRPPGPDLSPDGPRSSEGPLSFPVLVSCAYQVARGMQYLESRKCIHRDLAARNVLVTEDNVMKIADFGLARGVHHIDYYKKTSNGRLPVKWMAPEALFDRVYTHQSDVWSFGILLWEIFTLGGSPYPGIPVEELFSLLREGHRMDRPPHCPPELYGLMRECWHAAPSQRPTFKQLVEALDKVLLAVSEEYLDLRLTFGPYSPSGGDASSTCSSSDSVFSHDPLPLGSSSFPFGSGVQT

[16] = target: T5, Fibroblast growth factor receptor 3; assay: Binding affinity to FGFR3 (unknown origin) assessed as change in melting temperature by differential scanning fluorimetry analysis
[17] = Metabolic stability in human liver microsomes assessed as compound remaining measured after 2 hrs in presence of NADPH regenerating system measured upto 120 mins by LC-MS analysis; type: ADME, Microsome; settings: read-out: Stability

For `COc1cc(OC)cc(-c2ccc3nc(Nc4nc(Cl)ccc4[N+](=O)[O-])ncc3c2)c1`, the IC50 [1] was > 5 µM, the IC50 [2] was < 0.0005 µM and the IC50 [3] was 0.0045 µM. The IC50 [4] was > 5 µM, the IC50 [5] was > 5 µM and the IC50 [6] was > 5 µM. For the same compound, the IC50 [7] was 0.00448 µM, the IC50 [8] was > 5 µM and the IC50 [9] was > 5 µM. For the same compound, the Ki [10] was 0.0379 µM, the EC50 [11] was > 10 µM and the EC50 [12] was > 10 µM. The EC50 [13] was > 10 µM, the EC50 [14] was 0.03 µM and the EC50 (Hep 3B2) was 0.005 µM.

For `COc1cc(OC)cc(-c2ccc3nc(-c4cccc5cnc(Cl)nc45)ncc3c2)c1`, the IC50 [2] was > 5 µM and the Activity [15] was 96.5%.

In the case of `COc1cc(OC)cc(-c2ccc3nc(Sc4ncccc4[N+](=O)[O-])ncc3c2)c1`, the IC50 [2] is reported as > 5 µM and the Activity [15] is reported as 97.9%.

`C=CC(=O)Nc1cccc(C)c1Nc1ncc2cc(-c3c(Cl)c(OC)cc(OC)c3Cl)ccc2n1` gave an EC50 [11] of 4.26 µM, an EC50 [12] of 3.3 µM and an EC50 [13] of 2.24 µM. The EC50 (Hep 3B2) was 0.062 µM.

For `COc1cc(OC)c(Cl)c(-c2ccc3nc(Nc4nc(Cl)ccc4[N+](=O)[O-])ncc3c2)c1Cl`, the IC50 [1] was > 5 µM, the IC50 [2] was < 0.0005 µM and the IC50 [3] was 0.0012 µM. For the same compound, the IC50 [5] was 0.49 µM, the IC50 [6] was > 5 µM and the IC50 [7] was 0.0182 µM. For the same compound, the Ki [10] was 0.0057 µM, the EC50 [12] was 1.29 µM and the EC50 [13] was 1.43 µM. For the same compound, the EC50 [14] was 0.052 µM.

In the case of `COc1cc(OC)cc(-c2ccc3nc(Sc4ccnc(Cl)n4)ncc3c2)c1`, the IC50 [2] is reported as > 5 µM and the Activity [15] is reported as 82.6%.

`COc1cc(OC)c(Cl)c(-c2ccc3nc(Nc4ncccc4[N+](=O)[O-])ncc3c2)c1Cl` showed an IC50 [2] of 1.7 µM, an Activity [15] of 89.4% and a ΔTm [16] of 4.5 °C. For the same compound, the EC50 [11] was 0.867 µM, the EC50 [12] was 0.867 µM and the EC50 [13] was 1.78 µM. The EC50 [14] was 2.26 µM, the remaining at 2 h [17] was > 80% and the EC50 (Hep 3B2) was 1.07 µM.

With `COc1cc(OC)cc(-c2ccc3nc(Sc4nc(Cl)ncc4F)ncc3c2)c1` the IC50 [2] was > 5 µM and the Activity [15] was 96.5%.

For `COc1cc(OC)cc(-c2ccc3nc(Sc4nc(Cl)ccc4[N+](=O)[O-])ncc3c2)c1`, the IC50 [2] was 4.45 µM.

With `COc1cc(OC)cc(-c2ccc3ncncc3c2)c1` the IC50 [2] was > 5 µM and the Activity [15] was 93.1%.

In the case of `COc1cc(OC)cc(-c2ccc3nc(Nc4ncccc4[N+](=O)[O-])ncc3c2)c1`, the IC50 [2] is reported as > 5 µM and the Activity [15] is reported as 92.1%.

In the case of `COc1cc(OC)cc(-c2ccc3nc(Nc4nc(C)ccc4[N+](=O)[O-])ncc3c2)c1`, the IC50 [2] is reported as > 5 µM and the Activity [15] is reported as 53.6%.

In the case of `COc1cc(OC)cc(-c2ccc3nc(Sc4ccnc(F)n4)ncc3c2)c1`, the IC50 [2] is reported as > 5 µM and the Activity [15] is reported as > 100%.

`COc1cc(OC)c(Cl)c(-c2ccc3ncncc3c2)c1Cl` showed an IC50 [2] of 2.09 µM.

For `COc1cc(OC)cc(-c2ccc3nc(-n4ccc5cnc(Cl)nc54)ncc3c2)c1`, the IC50 [2] was > 5 µM.
